{"source": "the supplement of paper PMC10307832"}
{"compound": "C1=CC2=NC=CN=C2C=C1/C=C/3\\C(=O)NC(=O)S3 + CCNC(=O)c1noc(-c2cc(C(C)C)c(O)cc2O)c1-c1ccc(CN2CCOCC2)cc1 [Luminespib] (partner 0.01 µM)", "assay": "relative viability (nuclei count vs DMSO), 5 days (fraction); higher = more cells survive", "settings": "first compound 2 µM", "in_short": "(§1)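 Dosing by pin tool came one day after lung cancer cell lines were seeded in 1536-well plates, using either one drug or a fixed anchor-drug dose plus five library-drug doses (not always all listed) in √10 steps. After 5 days, nuclei were counted on 4× images. Relative viability is treated-well nuclei count divided by vehicle-well nuclei count, and values are medians of duplicate plates.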"}
{"cell line": "EKVX", "relative viability": 0.776}
{"cell line": "LC-2-ad", "relative viability": 0.739}
{"compound": "CCN1CCN(c2ccc(Nc3cc(N(C)C(=O)Nc4c(Cl)c(OC)cc(OC)c4Cl)ncn3)cc2)CC1 [BGJ398] + Cc1cc(Nc2cc(N3CCN(C)CC3)nc(Sc3ccc(NC(=O)C4CC4)cc3)n2)n[nH]1 [Tozasertib] (partner 0.1 µM)", "assay": "relative viability (nuclei count vs DMSO), 5 days (fraction); higher = more cells survive", "settings": "first compound 0.01 µM", "in_short": "as §1"}
{"cell line": "HARA", "relative viability": 0.0926}
{"cell line": "NCI-H322M", "relative viability": 0.479}
{"cell line": "LCLC-97TM1", "relative viability": 0.239}
{"cell line": "NCI-H2009", "relative viability": 0.732}
{"cell line": "A-427", "relative viability": 0.192}
{"cell line": "NCI-H441", "relative viability": 0.702}
{"cell line": "NCI-H661", "relative viability": 0.325}
{"cell line": "NCI-H1734", "relative viability": 0.259}
{"cell line": "NCI-H460", "relative viability": 0.446}
{"cell line": "NCI-H2347", "relative viability": 0.698}
{"cell line": "SK-LU-1", "relative viability": 0.354}
{"cell line": "NCI-H1395", "relative viability": 0.739}
{"cell line": "201T", "relative viability": 1.05}
{"cell line": "NCI-H1915", "relative viability": 0.446}
{"cell line": "HCC-827", "relative viability": 0.325}
{"cell line": "LXF-289", "relative viability": 0.173}
{"cell line": "NCI-H23", "relative viability": 0.387}
{"cell line": "NCI-H647", "relative viability": 0.366}
{"cell line": "CAL-12T", "relative viability": 0.285}
{"cell line": "NCI-H1651", "relative viability": 0.732}
{"cell line": "EPLC-272H", "relative viability": 0.17}
{"cell line": "NCI-H2228", "relative viability": 0.235}
{"cell line": "NCI-H1355", "relative viability": 0.57}
{"cell line": "NCI-H3122", "relative viability": 0.383}
{"cell line": "NCI-H1437", "relative viability": 0.414}
{"cell line": "NCI-H1755", "relative viability": 0.563}
{"cell line": "NCI-H2023", "relative viability": 0.309}
{"cell line": "HCC-15", "relative viability": 0.351}
{"cell line": "NCI-H1793", "relative viability": 0.337}
{"cell line": "PC-14", "relative viability": 0.575}
{"cell line": "EKVX", "relative viability": 0.387}
{"cell line": "LC-2-ad", "relative viability": 0.451}
{"compound": "CCN1CCN(c2ccc(Nc3cc(N(C)C(=O)Nc4c(Cl)c(OC)cc(OC)c4Cl)ncn3)cc2)CC1 [BGJ398] + Cc1cc(Nc2cc(N3CCN(C)CC3)nc(Sc3ccc(NC(=O)C4CC4)cc3)n2)n[nH]1 [Tozasertib] (partner 0.1 µM)", "assay": "relative viability (nuclei count vs DMSO), 5 days (fraction); higher = more cells survive", "settings": "first compound 0.03162 µM", "in_short": "as §1"}
{"cell line": "HARA", "relative viability": 0.116}
{"cell line": "NCI-H322M", "relative viability": 0.462}
{"cell line": "LCLC-97TM1", "relative viability": 0.224}
{"cell line": "NCI-H2009", "relative viability": 0.761}
{"cell line": "A-427", "relative viability": 0.153}
{"cell line": "NCI-H441", "relative viability": 0.652}
{"cell line": "NCI-H661", "relative viability": 0.369}
{"cell line": "NCI-H1734", "relative viability": 0.266}
{"cell line": "NCI-H460", "relative viability": 0.558}
{"cell line": "NCI-H2347", "relative viability": 0.575}
{"cell line": "SK-LU-1", "relative viability": 0.34}
{"cell line": "NCI-H1395", "relative viability": 0.789}
{"cell line": "201T", "relative viability": 0.877}
{"cell line": "NCI-H1915", "relative viability": 0.438}
{"cell line": "LXF-289", "relative viability": 0.189}
{"cell line": "NCI-H23", "relative viability": 0.339}
{"cell line": "NCI-H647", "relative viability": 0.294}
{"cell line": "CAL-12T", "relative viability": 0.324}
{"cell line": "NCI-H1651", "relative viability": 0.629}
{"cell line": "EPLC-272H", "relative viability": 0.276}
{"cell line": "NCI-H2228", "relative viability": 0.255}
{"cell line": "NCI-H1355", "relative viability": 0.566}
{"cell line": "NCI-H3122", "relative viability": 0.403}
{"cell line": "NCI-H1437", "relative viability": 0.418}
{"cell line": "NCI-H1755", "relative viability": 0.646}
{"cell line": "NCI-H2023", "relative viability": 0.345}
{"cell line": "HCC-15", "relative viability": 0.43}
{"cell line": "NCI-H1793", "relative viability": 0.351}
{"cell line": "EKVX", "relative viability": 0.421}
{"cell line": "LC-2-ad", "relative viability": 0.489}
{"compound": "CCN1CCN(c2ccc(Nc3cc(N(C)C(=O)Nc4c(Cl)c(OC)cc(OC)c4Cl)ncn3)cc2)CC1 [BGJ398] + Cc1cc(Nc2cc(N3CCN(C)CC3)nc(Sc3ccc(NC(=O)C4CC4)cc3)n2)n[nH]1 [Tozasertib] (partner 0.1 µM)", "assay": "relative viability (nuclei count vs DMSO), 5 days (fraction); higher = more cells survive", "settings": "first compound 0.1 µM", "in_short": "as §1"}
{"cell line": "HARA", "relative viability": 0.0915}
{"cell line": "NCI-H322M", "relative viability": 0.461}
{"cell line": "LCLC-97TM1", "relative viability": 0.293}
{"cell line": "NCI-H2009", "relative viability": 0.733}
{"cell line": "A-427", "relative viability": 0.162}
{"cell line": "NCI-H441", "relative viability": 0.529}
{"cell line": "NCI-H661", "relative viability": 0.365}
{"cell line": "NCI-H1734", "relative viability": 0.222}
{"cell line": "NCI-H460", "relative viability": 0.437}
{"cell line": "NCI-H2347", "relative viability": 0.515}
{"cell line": "SK-LU-1", "relative viability": 0.312}
{"cell line": "NCI-H1395", "relative viability": 0.72}
{"cell line": "201T", "relative viability": 0.965}
{"cell line": "NCI-H1915", "relative viability": 0.433}
{"cell line": "HCC-827", "relative viability": 0.441}
{"cell line": "LXF-289", "relative viability": 0.207}
{"cell line": "NCI-H23", "relative viability": 0.335}
{"cell line": "NCI-H647", "relative viability": 0.406}
{"cell line": "CAL-12T", "relative viability": 0.279}
{"cell line": "NCI-H1651", "relative viability": 0.633}
{"cell line": "EPLC-272H", "relative viability": 0.203}
{"cell line": "NCI-H2228", "relative viability": 0.224}
{"cell line": "NCI-H1355", "relative viability": 0.455}
{"cell line": "NCI-H3122", "relative viability": 0.377}
{"cell line": "NCI-H1437", "relative viability": 0.418}
{"cell line": "NCI-H1755", "relative viability": 0.552}
{"cell line": "NCI-H2023", "relative viability": 0.301}
{"cell line": "HCC-15", "relative viability": 0.436}
{"cell line": "NCI-H1793", "relative viability": 0.3}
{"cell line": "PC-14", "relative viability": 0.666}
{"cell line": "EKVX", "relative viability": 0.431}
{"cell line": "LC-2-ad", "relative viability": 0.486}
{"compound": "CCN1CCN(c2ccc(Nc3cc(N(C)C(=O)Nc4c(Cl)c(OC)cc(OC)c4Cl)ncn3)cc2)CC1 [BGJ398] + Cc1cc(Nc2cc(N3CCN(C)CC3)nc(Sc3ccc(NC(=O)C4CC4)cc3)n2)n[nH]1 [Tozasertib] (partner 0.1 µM)", "assay": "relative viability (nuclei count vs DMSO), 5 days (fraction); higher = more cells survive", "settings": "first compound 0.3162 µM", "in_short": "as §1"}
{"cell line": "HARA", "relative viability": 0.0847}
{"cell line": "NCI-H322M", "relative viability": 0.525}
{"cell line": "LCLC-97TM1", "relative viability": 0.23}
{"cell line": "NCI-H2009", "relative viability": 0.734}
{"cell line": "A-427", "relative viability": 0.179}
{"cell line": "NCI-H441", "relative viability": 0.615}
{"cell line": "NCI-H661", "relative viability": 0.354}
{"cell line": "NCI-H1734", "relative viability": 0.258}
{"cell line": "NCI-H460", "relative viability": 0.372}
{"cell line": "NCI-H2347", "relative viability": 0.621}
{"cell line": "SK-LU-1", "relative viability": 0.284}
{"cell line": "NCI-H1395", "relative viability": 0.624}
{"cell line": "201T", "relative viability": 0.914}
{"cell line": "NCI-H1915", "relative viability": 0.404}
{"cell line": "HCC-827", "relative viability": 0.363}
{"cell line": "LXF-289", "relative viability": 0.167}
{"cell line": "NCI-H23", "relative viability": 0.36}
{"cell line": "NCI-H647", "relative viability": 0.24}
{"cell line": "CAL-12T", "relative viability": 0.233}
{"cell line": "NCI-H1651", "relative viability": 0.575}
{"cell line": "EPLC-272H", "relative viability": 0.288}
{"cell line": "NCI-H2228", "relative viability": 0.188}
{"cell line": "NCI-H1355", "relative viability": 0.491}
{"cell line": "NCI-H3122", "relative viability": 0.407}
{"cell line": "NCI-H1437", "relative viability": 0.4}
{"cell line": "NCI-H1755", "relative viability": 0.623}
{"cell line": "NCI-H2023", "relative viability": 0.232}
{"cell line": "HCC-15", "relative viability": 0.349}
{"cell line": "NCI-H1793", "relative viability": 0.3}
{"cell line": "EKVX", "relative viability": 0.436}
{"cell line": "LC-2-ad", "relative viability": 0.474}
{"compound": "CCN1CCN(c2ccc(Nc3cc(N(C)C(=O)Nc4c(Cl)c(OC)cc(OC)c4Cl)ncn3)cc2)CC1 [BGJ398] + Cc1cc(Nc2cc(N3CCN(C)CC3)nc(Sc3ccc(NC(=O)C4CC4)cc3)n2)n[nH]1 [Tozasertib] (partner 0.1 µM)", "assay": "relative viability (nuclei count vs DMSO), 5 days (fraction); higher = more cells survive", "settings": "first compound 1 µM", "in_short": "as §1"}
{"cell line": "HARA", "relative viability": 0.0857}
{"cell line": "NCI-H322M", "relative viability": 0.521}
{"cell line": "LCLC-97TM1", "relative viability": 0.35}
{"cell line": "NCI-H2009", "relative viability": 0.697}
{"cell line": "A-427", "relative viability": 0.152}
{"cell line": "NCI-H441", "relative viability": 0.687}
{"cell line": "NCI-H661", "relative viability": 0.362}
{"cell line": "NCI-H1734", "relative viability": 0.26}
{"cell line": "NCI-H460", "relative viability": 0.456}
{"cell line": "NCI-H2347", "relative viability": 0.567}
{"cell line": "SK-LU-1", "relative viability": 0.222}
{"cell line": "NCI-H1395", "relative viability": 0.511}
{"cell line": "201T", "relative viability": 0.91}
{"cell line": "NCI-H1915", "relative viability": 0.416}
{"cell line": "HCC-827", "relative viability": 0.401}
{"cell line": "LXF-289", "relative viability": 0.196}
{"cell line": "NCI-H23", "relative viability": 0.304}
{"cell line": "NCI-H647", "relative viability": 0.304}
{"cell line": "CAL-12T", "relative viability": 0.243}
{"cell line": "NCI-H1651", "relative viability": 0.581}
{"cell line": "EPLC-272H", "relative viability": 0.227}
{"cell line": "NCI-H2228", "relative viability": 0.204}
{"cell line": "NCI-H1355", "relative viability": 0.538}
{"cell line": "NCI-H3122", "relative viability": 0.379}
{"cell line": "NCI-H1437", "relative viability": 0.427}
{"cell line": "NCI-H1755", "relative viability": 0.546}
{"cell line": "NCI-H2023", "relative viability": 0.255}
{"cell line": "HCC-15", "relative viability": 0.389}
{"cell line": "NCI-H1793", "relative viability": 0.287}
{"cell line": "PC-14", "relative viability": 0.621}
{"cell line": "EKVX", "relative viability": 0.389}
{"cell line": "LC-2-ad", "relative viability": 0.374}
